Measured values from patent US7579371B2, “Methods of using [3.2.0] heterocyclic compounds and analogs thereof” (Nereus Pharmaceuticals, Inc., priority 2004, dated 2009).

Tests used:
[1] = tested on: 20S proteasome chymotrypsin-like activity in RPMI 8226 cells; test: Chymotrypsin-like activity of 20S proteasomes in treated RPMI 8226 cells; type: cell-based, human; details: 1 nM, 1 hr
Experimental: RPMI 8226 (ATCC, CCL-155), the human multiple myeloma cell line, was cultured in RPMI 1640 medium supplemented with 2 mM L-glutamine, 100 units/ml penicillin, 100 μg/ml streptomycin, 1 mM sodium pyruvate and 10% heat inactivated fetal bovine serum at 37° C., 5% CO2 and 95% humidified air. […] DMSO was used as the vehicle control at a final concentration of 0.1%. Following 1 hr incubation of RMPI 8226 cells with the compounds, the cells were pelleted by centrifugation at 2,000 rpm for 10 sec at room temperature and washed 3× with ice-cold 1× Dulbecco's Phosphate-Buffered Saline (DPBS, Mediatech, Herndon, Va.). DPBS washed cells were lysed on ice for 15 min in lysis buffer (20 mM HEPES, 0.5 mM EDTA, 0.05% Triton X-100, pH 7.3) supplemented with protease inhibitor cocktail (Roche Diagnostics, Indianapolis, Ind.). Cell debris was pelleted by centrifugation at 14,000 rpm for 10 min, 4° C. and supernatants (=cell lysates) were transferred to a new tube. Protein concentration was determined by the BCA protein assay kit (Pierce Biotechnology, Rockford, Ill.). […] The released coumarin (AMC) was measured fluorometrically by using λex=390 nm and λem=460 nm. The assay was performed in a microtiter plate (Corning 3904) and followed kinetically with measurements every five minutes for 2 hr. The total amount of protein used for each assay was 20 μg. […]

[2] = target: CYP3A4 (Homo sapiens, UniProt P08684); test: Preliminary P450 inhibition screen; details: tested at 10 μM
Source text: (§1) These studies consisted of solubility assessment, LogD^7.4 determination and a preliminary screen to detect cytochrome P450 enzyme inhibition.

[3] = target: CYP1A2 (Homo sapiens, UniProt P05177); test: Preliminary P450 inhibition screen; details: tested at 10 μM
Source text: as §1

[4] = target: CYP2C19 (Homo sapiens, UniProt P33261); test: Preliminary P450 inhibition screen; details: tested at 10 μM
Source text: as §1

[5] = target: CYP2D6 (Homo sapiens, UniProt P10635); test: Preliminary P450 inhibition screen; details: tested at 10 μM
Source text: as §1

[6] = target: CYP2C9 (Homo sapiens, UniProt P11712); test: Preliminary P450 inhibition screen; details: tested at 10 μM
Source text: as §1

[7] = target: Cathepsin B (Homo sapiens, UniProt P07858); test: Inhibition of Cathepsin B; type: biochemical
[8] = tested on: RPMI 8226 cells; test: PARP and Pro-Caspase 3 cleavage in RPMI 8226 cells (western blot); type: cell-based, human; details: 100 nM; 0, 8 or 24 hours
Experimental: Total protein lysates were made and 20 μg of the lysates were then resolved under reducing/denaturing conditions and blotted onto nitrocellulose. The blots were then probed with anti-PARP or anti-caspase 3 antibodies followed by stripping and reprobing with an anti-actin antibody.
25 μg of the lysates were then resolved under reducing/denaturing conditions and blotted onto nitrocellulose. The blots were then probed with anti-PARP or anti-caspase 3 antibodies followed by stripping and reprobing with an anti-actin antibody.

CYP2C9, sequence (P11712 whole entry): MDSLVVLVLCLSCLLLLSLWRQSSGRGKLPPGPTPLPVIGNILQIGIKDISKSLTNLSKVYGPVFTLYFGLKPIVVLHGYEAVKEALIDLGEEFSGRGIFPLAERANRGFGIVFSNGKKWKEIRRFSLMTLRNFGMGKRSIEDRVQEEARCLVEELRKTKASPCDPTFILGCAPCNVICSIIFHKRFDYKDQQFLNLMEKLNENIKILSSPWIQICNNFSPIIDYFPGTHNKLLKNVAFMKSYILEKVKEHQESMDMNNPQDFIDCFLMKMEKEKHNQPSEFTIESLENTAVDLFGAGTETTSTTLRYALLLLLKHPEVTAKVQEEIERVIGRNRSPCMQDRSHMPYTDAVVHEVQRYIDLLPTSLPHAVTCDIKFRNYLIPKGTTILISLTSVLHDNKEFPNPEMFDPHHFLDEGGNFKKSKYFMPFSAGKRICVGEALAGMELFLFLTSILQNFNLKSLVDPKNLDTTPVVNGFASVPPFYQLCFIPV
CYP2C19, sequence (P33261 whole entry): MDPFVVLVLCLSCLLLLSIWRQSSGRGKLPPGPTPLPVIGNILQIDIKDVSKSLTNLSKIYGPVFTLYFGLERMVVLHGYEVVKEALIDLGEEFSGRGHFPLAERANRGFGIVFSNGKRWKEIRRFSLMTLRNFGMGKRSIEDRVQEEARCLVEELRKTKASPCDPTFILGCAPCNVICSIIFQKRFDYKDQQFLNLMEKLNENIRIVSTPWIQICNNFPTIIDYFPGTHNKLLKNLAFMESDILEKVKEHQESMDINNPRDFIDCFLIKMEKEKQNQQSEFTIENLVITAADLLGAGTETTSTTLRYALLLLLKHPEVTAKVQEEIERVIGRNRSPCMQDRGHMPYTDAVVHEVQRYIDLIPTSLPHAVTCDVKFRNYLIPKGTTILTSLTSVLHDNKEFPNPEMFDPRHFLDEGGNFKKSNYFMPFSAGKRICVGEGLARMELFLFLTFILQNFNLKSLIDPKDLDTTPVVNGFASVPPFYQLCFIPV
CYP2D6, sequence (P10635 whole entry): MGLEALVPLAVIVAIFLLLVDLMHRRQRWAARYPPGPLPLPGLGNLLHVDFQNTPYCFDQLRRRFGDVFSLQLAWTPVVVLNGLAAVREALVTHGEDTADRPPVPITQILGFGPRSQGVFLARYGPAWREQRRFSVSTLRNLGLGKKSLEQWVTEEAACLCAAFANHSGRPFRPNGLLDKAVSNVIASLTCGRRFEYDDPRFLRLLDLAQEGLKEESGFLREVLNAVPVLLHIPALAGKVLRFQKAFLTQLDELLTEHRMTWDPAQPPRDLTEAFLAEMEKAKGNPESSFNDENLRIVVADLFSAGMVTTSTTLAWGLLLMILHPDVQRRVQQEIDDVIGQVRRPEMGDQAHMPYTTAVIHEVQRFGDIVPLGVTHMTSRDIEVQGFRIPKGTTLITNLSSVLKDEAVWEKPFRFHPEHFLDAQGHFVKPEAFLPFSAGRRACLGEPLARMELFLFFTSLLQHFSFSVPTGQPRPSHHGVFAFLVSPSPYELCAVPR
CYP3A4, sequence (P08684 whole entry): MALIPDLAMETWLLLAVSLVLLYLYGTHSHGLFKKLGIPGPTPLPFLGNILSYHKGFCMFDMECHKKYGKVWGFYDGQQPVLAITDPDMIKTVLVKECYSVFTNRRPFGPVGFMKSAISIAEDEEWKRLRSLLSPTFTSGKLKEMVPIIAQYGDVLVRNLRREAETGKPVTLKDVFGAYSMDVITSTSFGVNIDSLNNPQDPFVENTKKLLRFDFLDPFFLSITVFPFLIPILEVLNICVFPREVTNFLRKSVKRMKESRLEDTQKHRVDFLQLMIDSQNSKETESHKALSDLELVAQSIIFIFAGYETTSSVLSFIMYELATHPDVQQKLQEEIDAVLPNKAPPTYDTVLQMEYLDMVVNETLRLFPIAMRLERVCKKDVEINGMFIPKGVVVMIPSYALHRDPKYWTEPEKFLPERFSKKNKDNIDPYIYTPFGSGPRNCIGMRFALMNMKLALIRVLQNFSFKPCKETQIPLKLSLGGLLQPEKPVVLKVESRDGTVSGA
CYP1A2, sequence (P05177 whole entry): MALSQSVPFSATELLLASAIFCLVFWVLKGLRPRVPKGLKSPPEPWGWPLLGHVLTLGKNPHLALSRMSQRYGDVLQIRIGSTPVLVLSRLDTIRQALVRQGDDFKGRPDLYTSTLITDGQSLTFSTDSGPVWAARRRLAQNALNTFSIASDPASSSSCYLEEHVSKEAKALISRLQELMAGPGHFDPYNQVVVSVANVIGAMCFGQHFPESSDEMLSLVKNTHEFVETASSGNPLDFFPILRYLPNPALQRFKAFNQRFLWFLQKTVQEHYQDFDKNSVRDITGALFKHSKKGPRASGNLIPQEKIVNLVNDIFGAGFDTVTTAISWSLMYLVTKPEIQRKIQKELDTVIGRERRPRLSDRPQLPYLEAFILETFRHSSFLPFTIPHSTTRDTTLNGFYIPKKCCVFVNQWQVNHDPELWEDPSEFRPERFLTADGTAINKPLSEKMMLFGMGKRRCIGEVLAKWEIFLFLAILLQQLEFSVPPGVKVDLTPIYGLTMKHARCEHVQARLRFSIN

SMILES: C[C@@]12OC(=O)[C@]1([C@@H](O)[C@@H]1C=CCCC1)NC(=O)[C@@H]2CCCl [Formula II-16, Salinosporamide A]
- % inhibition of the chymotrypsin-like activity of 20S proteasomes in RPMI 8226 cell lysates [1]: 30 ± 7%
- inhibition of CYP3A4 [2]: 6%
- inhibition of CYP1A2 [3]: 3%
- inhibition of CYP2C19 [4]: 22%
- inhibition of CYP2D6 [5]: 19%
- inhibition of CYP2C9 [6]: 6%
- EC50 [7]: > 200 µM
- cleavage of PARP and Pro-caspase 3 [8]: cleavage of PARP and Pro-caspase 3 in a time-dependent manner
